Experimental findings from patent US8883826B2, “Alkynyl derivatives as modulators of metabotropic glutamate receptors” (Addex Pharma SA, priority 2004, dated 2014) are described below.

One data set deals with Male C57BL6/j mice. Briefly: Marble burying model of anxiety. Format: in vivo, mouse. The conditions noted are these: 30 mg/kg po, 60 minutes prior to test, n=10/group, t=3.686, p<0.01. The text has this: Marble Burying Model of Anxiety
Marble burying behavior in mice is reduced by compounds which are efficacious anxiolytics in humans. Thus, marble burying in mice has been used as a model for the prediction of anxiolytic-like effects of compounds (Millan, M. J. et al., Neuropharmacology, 42:677-684 (2002)).
Selective negative allosteric modulators (allosteric antagonists) of the metabotropic glutamate receptor subtype 5 (mGluR5) have been shown previously to reduce marble burying in mice (Spooren, W. P. et al., Journal of Pharmacology and Experimental Therapeutics, 295:1267-1275 (2000)). […] Such compounds may be useful in the treatment of anxiety and related disorders.
The present studies were performed in accordance with the animal care and use policies of Addex Pharmaceuticals and the EEC directives on the protection of animals used for experimental and other scientific purposes (86/609/EEC and subsequent revisions). […]
The effect of compounds on marble burying in mice was tested. […] After removal of the mice from the test cages, the number of marbles buried was counted. […]
Statistical analyses were performed using GraphPad PRISM version 4.01 statistical software (GraphPad, San Diego, Calif., USA). Data were analyzed using one-way analysis of variance (ANOVA) followed by Bonferroni-corrected multiple comparisons, or t tests if only 2 groups were present. […]

The next data set concerns the target T1, mGluR5 (Rattus norvegicus, UniProt P31424).
T1 construct: tissue Charles River Laboratories; host or cells: rat brain cortex membranes (Sprague-Dawley)
As to the kind of experiment: mGluR5 binding assay ([3H]-MPEP radioligand competition). The following applies: competition with 3 nM [3H]-MPEP, rat brain cortical membranes, 1 h at 4 °C; mean of at least three independent experiments in duplicate. In short, it runs like this: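 Rat cortical membranes (50 μg) were incubated 1 h at 4 °C with 3 nM [3H]-MPEP and compound (0.003 nM-30 μM, 8 points) in HEPES buffer pH 7.4 with Mg2+, Ca2+ and NaCl. 30 μM MPEP defined non-specific binding, and bound label was counted after filtration. IC50 came from non-linear regression, as the mean of ≥3 experiments run in duplicate.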

The test system of another data set is Male Sprague-Dawley rats. Briefly: Vogel conflict drinking model of anxiety. The class given is in vivo, rat. The following applies: 10 mg/kg po, n=9-10/group, t=3.585, p<0.01. The text has this: Vogel Conflict Drinking Model of Anxiety in Rats
The Vogel conflict drinking model involves the conflict between thirst and receiving mild shocks for drinking water (punished drinking). Water-deprived rats are placed in a chamber and are periodically shocked for drinking water. The shocks suppress drinking and anxiolytics reverse this shock-induced suppression of drinking. The Vogel conflict drinking model was first proposed as a screening model for anxiolytics (Vogel, J. R. et al., Psychopharmacologia (Berl.), 21:1-7 (1971)) and is widely accepted as a robust model for testing the anxiolytic-like properties of compounds (Millan, M. J. and Brocco M., European Journal of Pharmacology, 463:67-96 (2003)).
Such compounds may be useful in the treatment of anxiety and related disorders. […]
The effect of compounds on drinking in the Vogel conflict drinking model in rats was tested. […] The number of punished drinks was counted automatically by the computer interface. […]
Statistical analyses were performed using GraphPad PRISM version 4.01 statistical software (GraphPad, San Diego, Calif., USA). Data were analyzed using one-way analysis of variance (ANOVA) followed by Bonferroni multiple comparisons. […]

Entries after “also recorded” stand apart in the source; their conditions may differ.

T1 sequence (P31424 21-1203): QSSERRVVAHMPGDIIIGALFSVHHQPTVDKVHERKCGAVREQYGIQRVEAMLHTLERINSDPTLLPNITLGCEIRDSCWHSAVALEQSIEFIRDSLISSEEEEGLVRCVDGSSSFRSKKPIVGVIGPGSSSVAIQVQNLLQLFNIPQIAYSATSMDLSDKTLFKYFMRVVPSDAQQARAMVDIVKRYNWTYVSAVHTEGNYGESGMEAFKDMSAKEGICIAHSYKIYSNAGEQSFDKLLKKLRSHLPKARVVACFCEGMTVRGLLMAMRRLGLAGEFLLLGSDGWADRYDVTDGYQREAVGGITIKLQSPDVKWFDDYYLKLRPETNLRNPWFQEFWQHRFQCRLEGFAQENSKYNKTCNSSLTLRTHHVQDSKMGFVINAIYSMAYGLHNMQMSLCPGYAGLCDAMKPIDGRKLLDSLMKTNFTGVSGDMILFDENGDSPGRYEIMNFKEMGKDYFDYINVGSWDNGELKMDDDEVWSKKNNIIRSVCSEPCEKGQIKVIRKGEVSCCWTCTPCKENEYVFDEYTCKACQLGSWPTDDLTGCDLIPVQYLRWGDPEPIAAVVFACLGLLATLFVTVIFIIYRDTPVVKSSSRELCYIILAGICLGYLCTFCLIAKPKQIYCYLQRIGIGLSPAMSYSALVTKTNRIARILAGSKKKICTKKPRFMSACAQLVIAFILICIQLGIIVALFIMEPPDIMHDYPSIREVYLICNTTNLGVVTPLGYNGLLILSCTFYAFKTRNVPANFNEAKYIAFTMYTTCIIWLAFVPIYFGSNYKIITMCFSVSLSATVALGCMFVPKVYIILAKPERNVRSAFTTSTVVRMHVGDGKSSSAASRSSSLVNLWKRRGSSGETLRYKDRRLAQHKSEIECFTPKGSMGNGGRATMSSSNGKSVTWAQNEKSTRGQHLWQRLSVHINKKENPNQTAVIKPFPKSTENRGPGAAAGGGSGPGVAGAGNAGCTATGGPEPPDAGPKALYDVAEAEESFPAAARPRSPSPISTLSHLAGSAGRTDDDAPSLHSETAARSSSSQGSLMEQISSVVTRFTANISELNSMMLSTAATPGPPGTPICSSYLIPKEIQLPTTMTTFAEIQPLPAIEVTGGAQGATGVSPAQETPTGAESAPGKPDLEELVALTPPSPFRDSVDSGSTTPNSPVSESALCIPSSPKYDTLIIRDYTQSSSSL

In turn, `FCc1cccc(C#CCCc2cn3cccc(Cl)c3n2)n1` [Example 256, 8-Chloro-2-(4-(6-(fluoromethyl)pyridin-2-yl)but-3-ynyl)-imidazo[1,2-a]pyridine] registered a melting point of 73 to 74.5 °C. In the data set on Male C57BL6/j mice, the “marble burying in mice (number of marbles buried vs vehicle)” value is given as “significantly attenuates marble burying; also recorded: buried fewer marbles than vehicle-treated mice”. Besides, at mGluR5, the concentration for half-maximal inhibition (IC50) is less than 50 nM. Also, the “punished drinking in the Vogel conflict drinking test (vs vehicle)” value with Male Sprague-Dawley rats was “significantly increases punished drinking; also recorded: accepted significantly more shocks than vehicle-treated rats”.

Usually melting point stands for the temperature of the solid-liquid transition. The IC50 is the point on the concentration scale where inhibition reaches its midpoint. Higher therefore signals weaker potency in that assay.
